Source: publication PMC10272180, “Ancient medicinal plant rosemary contains a highly efficacious and isoform-selective KCNQ potassium channel opener” (Communications Biology, 2023)

Experiments:
Format in all cases: cell-based
KCNQ2/5 = molecular target: T1, KCNQ2/5 (Homo sapiens, UniProt O43526+Q9NR82); assay: TEVC of KCNQ2/5 heteromers expressed in Xenopus laevis oocytes
T1 construct: expressed in transfected cells; host or cells: Xenopus laevis oocytes co-injected with cRNAs
Text: (§1) We generated cRNA transcripts encoding human KCNQ1, 2, 3, and 5 (wild-type and mutant) by in vitro transcription using the mMessage mMachine kit (Thermo Fisher Scientific, Waltham, MA, USA) according to manufacturer’s instructions, after vector linearization, from cDNA sub-cloned into expression vectors (pTLNx and pXOOM) incorporating Xenopus laevis β-globin 5’ and 3’ UTRs flanking the coding region to enhance translation and cRNA stability. Mutant KCNQ cDNAs were generated by Genscript (Piscataway, NJ, USA) and cRNAs made as above. We injected defolliculated stage V and VI Xenopus laevis oocytes (Xenoocyte, Dexter, MI, USA) with KCNQ cRNAs (2–10 ng) and incubated the oocytes at 16 °C in ND96 oocyte storage solution containing penicillin and streptomycin, with daily washing, for 2–4 days prior to two-electrode voltage-clamp (TEVC) recording.
(§2) We performed TEVC at room temperature using an OC-725C amplifier (Warner Instruments, Hamden, CT, USA) and pClamp10 software (Molecular Devices, Sunnyvale, CA, USA) 2–4 days after cRNA injection. We placed oocytes in a small-volume oocyte bath (Warner) and viewed them with a dissection microscope for cellular electrophysiology. We sourced chemicals from Sigma-Aldrich (St. Louis, MO, USA) and Combi-Blocks (San Diego, CA, USA). We studied effects of Salvia rosmarinus extracts and of compounds, solubilized directly in bath solution (in mM): 96 NaCl, 4 KCl, 1 MgCl2, 1 CaCl2, 10 HEPES (pH 7.6). We introduced extracts or compounds into the oocyte recording bath by gravity perfusion at a constant flow of 1 ml per minute for 3 min prior to recording. Pipettes were of 1-2 MΩ resistance when filled with 3 M KCl. We recorded currents in response to voltage pulses between −120 mV and +40 mV at 10 mV intervals from a holding potential of −80 mV, to yield current-voltage relationships and examine activation kinetics. We analyzed data using Clampfit (Molecular Devices) and Graphpad Prism software (GraphPad, San Diego, CA, USA), stating values as mean ± SEM. We plotted raw or normalized tail currents versus prepulse voltage and fitted with a single Boltzmann function:1 g=(A1−A2)/1+exp[V1/2−V/Vs]y+A2 where g is the normalized tail conductance, A1 is the initial value at -∞, A2 is the final value at +∞, V1/2 is the half-maximal voltage of activation and Vs the slope factor. We fitted activation and deactivation kinetics with single exponential functions.

KCNQ3*-R243A = KCNQ3*-R243A (Homo sapiens, UniProt O43525, A315T/R243A); assay: TEVC of mutant KCNQ3*-R243A in oocytes; conditions: 100 µM
Text: as §1
We performed TEVC at room temperature using an OC-725C amplifier (Warner Instruments, Hamden, CT, USA) and pClamp10 software (Molecular Devices, Sunnyvale, CA, USA) 2–4 days after cRNA injection. […] We recorded currents in response to voltage pulses between −120 mV and +40 mV at 10 mV intervals from a holding potential of −80 mV, to yield current-voltage relationships and examine activation kinetics. We analyzed data using Clampfit (Molecular Devices) and Graphpad Prism software (GraphPad, San Diego, CA, USA), stating values as mean ± SEM. […]

KCNQ3*-W265L = KCNQ3*-W265L (Homo sapiens, UniProt O43525, A315T/W265L); assay: TEVC of mutant KCNQ3*-W265L in oocytes
Text: as §1
as §2, with “We recorded currents in response to voltage pulses between −120 mV and +40 mV at 10 mV intervals from a holding potential of −80 mV, to yield current-voltage relationships and examine activation kinetics.” left out

KCNQ3*-L198F = KCNQ3*-L198F (Homo sapiens, UniProt O43525, A315T/L198F); assay: TEVC of mutant KCNQ3*-L198F in oocytes
Text: as §1
as §2, with “We recorded currents in response to voltage pulses between −120 mV and +40 mV at 10 mV intervals from a holding potential of −80 mV, to yield current-voltage relationships and examine activation kinetics.” left out

KCNQ3*-P211A = KCNQ3*-P211A (Homo sapiens, UniProt O43525, A315T/P211A); assay: TEVC of mutant KCNQ3*-P211A in oocytes
Text: as §1, §2

KCNQ3*-M240A = KCNQ3*-M240A (Homo sapiens, UniProt O43525, A315T/M240A); assay: TEVC of mutant KCNQ3*-M240A in oocytes; conditions: 100 µM
Text: as §1
as §2, with “We plotted raw or normalized tail currents versus prepulse voltage and fitted with a single Boltzmann function:1 g=(A1−A2)/1+exp[V1/2−V/Vs]y+A2 where g is the normalized tail conductance, A1 is the initial value at -∞, A2 is the final value at +∞, V1/2 is the half-maximal voltage of activation and Vs the slope factor. We fitted activation and deactivation kinetics with single exponential functions.” left out

CC(C)c1cc2c(c(O)c1O)[C@@]1(C(=O)O)CCCC(C)(C)[C@@H]1CC2 [Carnosic acid, carnosic acid]
V0.5 Normalized tail current (KCNQ2/5; 0.1 µM): -40.58 ± 1.11 mV | V0.5 Normalized tail current (KCNQ2/5; 1 µM): -44.54 ± 0.73 mV | V0.5 Normalized tail current (KCNQ2/5; 3 µM): -47.07 ± 0.55 mV | V0.5 Normalized tail current (KCNQ2/5; 10 µM): -46.44 ± 0.68 mV | V0.5 Normalized tail current (KCNQ2/5; 30 µM): -45.89 ± 0.76 mV | V0.5 Normalized tail current (KCNQ2/5; 100 µM): -46.50 ± 0.97 mV | EC50 (KCNQ2/5; EC50 EM): 4.76 ± 0.34 µM | EC50 (KCNQ2/5; EC50 V0.5 Activation): 0.74 ± 0.12 µM | Slope (KCNQ3*-R243A): 9.48 ± 0.54 mV | V0.5 Normalized tail current (KCNQ3*-R243A): -64.93 ± 0.61 mV | V0.5 Normalized tail current (KCNQ3*-W265L; 0.1 µM): -75.60 ± 1.02 mV | V0.5 Normalized tail current (KCNQ3*-W265L; 1 µM): -86.19 ± 1.09 mV | V0.5 Normalized tail current (KCNQ3*-W265L; 3 µM): -96.66 ± 1.64 mV | V0.5 Normalized tail current (KCNQ3*-W265L; 10 µM): -105.3 ± 2.56 mV | V0.5 Normalized tail current (KCNQ3*-W265L; 100 µM): -146.0 ± 1.92 mV | EC50 (KCNQ3*-W265L; EC50 EM): 0.14 ± 0.03 µM | EC50 (KCNQ3*-W265L; EC50 V0.5 Activation): 2.11 ± 0.09 µM | sensitivity in terms of potency versus KCNQ3* (KCNQ3*-W265L; dose-response): approximately fivefold | V0.5 Normalized tail current (KCNQ3*-L198F; 0.1 µM): -58.22 ± 0.59 mV | V0.5 Normalized tail current (KCNQ3*-L198F; 1 µM): -62.90 ± 0.79 mV | V0.5 Normalized tail current (KCNQ3*-L198F; 3 µM): -73.56 ± 0.79 mV | V0.5 Normalized tail current (KCNQ3*-L198F; 10 µM): -91.66 ± 1.99 mV | V0.5 Normalized tail current (KCNQ3*-L198F; 30 µM): -116.6 ± 3.44 mV | EC50 (KCNQ3*-L198F; EC50 EM): 1.15 ± 0.12 µM | EC50 (KCNQ3*-L198F; EC50 V0.5 Activation): 6.28 ± 0.08 µM | carnosic acid efficacy and potency compared with KCNQ3* (KCNQ3*-L198F; dose-response): very similarly | V0.5 Normalized tail current (KCNQ3*-P211A; 0.1 µM): -55.16 ± 1.00 mV | V0.5 Normalized tail current (KCNQ3*-P211A; 1 µM): -59.20 ± 1.17 mV | V0.5 Normalized tail current (KCNQ3*-P211A; 3 µM): -61.55 ± 1.44 mV | V0.5 Normalized tail current (KCNQ3*-P211A; 10 µM): -78.35 ± 1.93 mV | V0.5 Normalized tail current (KCNQ3*-P211A; 30 µM): -98.23 ± 4.44 mV | V0.5 Normalized tail current (KCNQ3*-P211A; 100 µM): -110.7 ± 3.83 mV | EC50 (KCNQ3*-P211A; EC50 EM): 3.21 ± 0.21 µM | EC50 (KCNQ3*-P211A; EC50 V0.5 Activation): 15.25 ± 0.07 µM | carnosic acid efficacy and potency compared with KCNQ3* (KCNQ3*-P211A; dose-response): very similarly | Slope (KCNQ3*-M240A): 17.31 ± 1.56 mV | V0.5 Normalized tail current (KCNQ3*-M240A): -66.81 ± 1.80 mV | constitutive current at −120 mV (KCNQ3*-M240A): 20%
